Measurements published in patent US20250313547A1, “CEREBLON LIGANDS AND BIFUNCTIONAL COMPOUNDS COMPRISING THE SAME” (Arvinas Operations, Inc., priority 2017, published 2025).

Test system: androgen receptor (AR)
Assay: AR ELISA assay (androgen receptor degradation)
Assay type: cell-based
Settings: LNCaP and/or VCaP cells, 5 hours drug treatment; for AR Dmax: % degraded
Description: 5. AR ELISA Assay Protocol
Compounds were evaluated in this assay in LNCaP and/or VCaP cells utilizing similar protocols. The protocols used with VCaP cells are described below. The androgen receptor ELISA assay was performed using PathScan AR Sandwich ELISA (Cell Signaling Catalog #12850) according to the following assay steps:
VCaP cells were seeded at 40,000 cells/well at a volume of 100 µL/well in VCaP assay medium [Phenol red free RPMI (Gibco Cat #11835-030); 5% Charcoal Stripped (Dextran treated) FBS (Omega Scientific, Cat #FB-04); 1% penstrep (Life Technologies, Gibco Cat #: 10378-016)] in Corning 3904 plates. The cells were incubated for a minimum of 3 days. Cells were dosed with PROTACs diluted in 0.01% DMSO and the drug treatment was allowed for 5 hours.
AR ELISA (Cell Signaling) was performed as follows. 1×Cell Signaling Cell lysis buffer was made (Catalogue #9803; comes with the kit). Media from the treated wells is aspirated, and 100 μL 1×cell lysis buffer/well is added. The cells were placed on a shaker for 10 minutes at 4° C. Twenty microliters of lysate was transferred to 100 μl of Diluent in ELISA plate ([…]-0.075 μg/ml). The lysate-diluent mixture was shaken for 30 minutes at 37° C. Allow mouse AR antibody, anti-mouse antibody, TMB, and STOP solution to come to room temperature. The 1×ELISA buffer included in kit was made and loaded in the reservoir. Media from the plates was discarded, the ELISA plate tapped hard on paper towel, and washed 4×200 μl ELISA wash buffer using a plate washer.
One-hundred (100) μL/well of mouse AR detection Ab was added; the plates were covered and shaken at 37° C. for 1 hour; media was discarded from the plates, the plates were tapped on a paper towel, washed 4× with 200 μL ELISA wash buffer with a plate washer.
One-hundred (100) μL/well of anti-mouse—HRP conjugated Ab (comes with the kit) was added; the plates were covered and shaken at 37° C. for 30 minutes; the TMB reagent was allowed to come to room temperature; the media was discard from the plate, the plates were tapped on paper towel, washed 4× with 200 μL of ELISA wash buffer; the plates were tapped the plates on paper towel. One-hundred (100) μL of TMB was added and the plates shaken for 2 minutes—while watching for color development. One-hundred (100) μL Stop solution was added when light blue color developed. Plates were shaken and read at 450 nm.

Structure (SMILES) | AR Dmax | DC50
CC1(C)[C@H](NC(=O)c2ccc(/C=C/CN3CCC4(CC3)CC(=O)N(C3CCC(=O)NC3=O)C4=O)cc2)C(C)(C)[C@H]1Oc1ccc(C#N)c(Cl)c1 (mixture of isomers) [PROTAC-77, rac-N-((1r,3r)-3-(3-chloro-4-cyanophenoxy)-2,2,4,4-tetramethylcyclobutyl)-4-((E)-3-(2-(2,6-dioxopiperidin-3-yl)-1,3-dioxo-2,8-diazaspiro[4.5]decan-8-yl)prop-1-en-1-yl)benzamide] | C (C <= 50) | ≥ 100 nM
CC1(C)[C@H](NC(=O)c2ccc(N3CCC(CN4CCN(c5ccc(C(=O)NC6CCC(=O)NC6=O)nc5)CC4)CC3)nn2)C(C)(C)[C@H]1Oc1ccc(C#N)c(Cl)c1 (mixture of isomers) [PROTAC-54, rac-N-((1r,3r)-3-(3-chloro-4-cyanophenoxy)-2,2,4,4-tetramethylcyclobutyl)-6-(4-((4-(6-((2,6-dioxopiperidin-3-yl)carbamoyl)pyridin-3-yl)piperazin-1-yl)methyl)piperidin-1-yl)pyridazine-3-carboxamide] | B (50 < B <= 75) | 1 to 10 nM
CC1(C)[C@H](NC(=O)c2ccc(N3CCN(CCOc4cccc5c4CN(c4ccc(F)cc4F)C5=O)CC3)nc2)C(C)(C)[C@H]1Oc1ccc(C#N)c(Cl)c1 [PROTAC-39, N-((1r,3r)-3-(3-chloro-4-cyanophenoxy)-2,2,4,4-tetramethylcyclobutyl)-6-(4-(2-((2-(2,4-difluorophenyl)-1-oxoisoindolin-4-yl)oxy)ethyl)piperazin-1-yl)nicotinamide] | 0C (C <= 50) | ≥ 100 nM
N#Cc1ccc(O[C@H]2CC[C@H](NC(=O)c3ccc(N4CCC(CN5CCN(c6ccc(C(=O)NC7CCC(=O)NC7=O)cc6)CC5)CC4)nn3)CC2)cc1Cl (some centres unmarked) [PROTAC-59, N-((1r,4r)-4-(3-chloro-4-cyanophenoxy)cyclohexyl)-6-(4-((4-(4-((2,6-dioxopiperidin-3-yl)carbamoyl)phenyl)piperazin-1-yl)methyl)piperidin-1-yl)pyridazine-3-carboxamide] | A (A > 75) | < 1 nM
CC1(C)[C@H](NC(=O)c2ccc(CCCCN3CCN(c4cnn(C5CCC(=O)NC5=O)c(=O)c4)CC3)nc2)C(C)(C)[C@H]1Oc1ccc(C#N)c(Cl)c1 (some centres unmarked) [PROTAC-61, N-((1r,3r)-3-(3-chloro-4-cyanophenoxy)-2,2,4,4-tetramethylcyclobutyl)-6-(4-(4-(1-(2,6-dioxopiperidin-3-yl)-6-oxo-1,6-dihydropyridazin-4-yl)piperazin-1-yl)butyl)nicotinamide] | B (50 < B <= 75) | < 1 nM
CC1(C)[C@H](NC(=O)c2ccc(N3CCN(CCCCCOc4ccc5ncc(-n6ccc(=O)[nH]c6=O)cc5c4)CC3)nc2)C(C)(C)[C@H]1Oc1ccc(C#N)c(Cl)c1 [PROTAC-47, N-((1r,3r)-3-(3-chloro-4-cyanophenoxy)-2,2,4,4-tetramethylcyclobutyl)-6-(4-(5-((3-(2,4-dioxo-3,4-dihydropyrimidin-1(2H)-yl)quinolin-6-yl)oxy)pentyl)piperazin-1-yl)nicotinamide] | C (C <= 50) | 1 to 10 nM
CC1(C)[C@H](NC(=O)c2ccc(N3CCN(CCOCCOc4cccc5c4CN(c4ccc(F)cc4F)C5=O)CC3)nc2)C(C)(C)[C@H]1Oc1ccc(C#N)c(Cl)c1 [PROTAC-40, rac-N-((1r,3r)-3-(3-chloro-4-cyanophenoxy)-2,2,4,4-tetramethylcyclobutyl)-6-(4-(2-(2-((2-(2,4-difluorophenyl)-1-oxoisoindolin-4-yl)oxy)ethoxy)ethyl)piperazin-1-yl)nicotinamide] | C (C <= 50) | ≥ 100 nM
CC1(C)[C@H](NC(=O)c2ccc(N3CCC(CCN4CCN(c5ccc(C(=O)NC6CCC(=O)NC6=O)nc5)CC4)CC3)nc2)C(C)(C)[C@H]1Oc1ccc(C#N)c(Cl)c1 (mixture of isomers) [PROTAC-52, rac-5-(4-(2-(1-(5-(((1r,3r)-3-(3-chloro-4-cyanophenoxy)-2,2,4,4-tetramethylcyclobutyl)carbamoyl)pyridin-2-yl)piperidin-4-yl)ethyl)piperazin-1-yl)-N-(2,6-dioxopiperidin-3-yl)picolinamide] | B (50 < B <= 75) | < 1 nM
CC1Nc2c(OCCCCCN3CCN(c4ccc(C(=O)N[C@H]5C(C)(C)[C@H](Oc6ccc(C#N)c(Cl)c6)C5(C)C)cn4)CC3)cccc2C(=O)N1C1CCC(=O)NC1=O (mixture of isomers) [PROTAC-28, rac-N-((1r,3r)-3-(3-chloro-4-cyanophenoxy)-2,2,4,4-tetramethylcyclobutyl)-6-(4-(5-((3-(2,6-dioxopiperidin-3-yl)-2-methyl-4-oxo-1,2,3,4-tetrahydroquinazolin-8-yl)oxy)pentyl)piperazin-1-yl)nicotinamide] | C (C <= 50) | ≥ 100 nM
CC1(C)[C@H](NC(=O)c2ccc(N3CCC(CN4CCN(c5ccc6c(=O)n(C7CCC(=O)NC7=O)ccc6c5)CC4)CC3)cc2)C(C)(C)[C@H]1Oc1ccc(C#N)c(Cl)c1 (some centres unmarked) [PROTAC-82, N-((1r,3r)-3-(3-chloro-4-cyanophenoxy)-2,2,4,4-tetramethylcyclobutyl)-4-(4-((4-(2-(2,6-dioxopiperidin-3-yl)-1-oxo-1,2-dihydroisoquinolin-6-yl)piperazin-1-yl)methyl)piperidin-1-yl)benzamide] | A (A > 75) | < 1 nM
C=C1CN(C2CCC(=O)NC2=O)C(=O)c2ccc(N3CCN(CC4CCN(c5ccc(C(=O)N[C@H]6C(C)(C)[C@H](Oc7ccc(C#N)c(Cl)c7)C6(C)C)cc5)CC4)CC3)cc21 (some centres unmarked) [PROTAC-81, N-((1r,3r)-3-(3-chloro-4-cyanophenoxy)-2,2,4,4-tetramethylcyclobutyl)-4-(4-((4-(2-(2,6-dioxopiperidin-3-yl)-4-methylene-1-oxo-1,2,3,4-tetrahydroisoquinolin-6-yl)piperazin-1-yl)methyl)piperidin-1-yl)benzamide] | A (A > 75) | < 1 nM
Cn1c(-c2cccc(OCCCCCN3CCN(c4ccc(C(=O)N[C@H]5C(C)(C)[C@H](Oc6ccc(C#N)c(Cl)c6)C5(C)C)cc4)CC3)c2)nn(C2CCC(=O)NC2=O)c1=O (mixture of isomers) [PROTAC-67, rac-N-((1r,3r)-3-(3-chloro-4-cyanophenoxy)-2,2,4,4-tetramethylcyclobutyl)-4-(4-(5-(3-(1-(2,6-dioxopiperidin-3-yl)-4-methyl-5-oxo-4,5-dihydro-1H-1,2,4-triazol-3-yl)phenoxy)pentyl)piperazin-1-yl)benzamide] | C (C <= 50) | 1 to 10 nM
CC1(C)[C@H](NC(=O)c2ccc(N3CCN(CCOCCOCc4cc5ccccc5c(=O)n4C4CCC(=O)NC4=O)CC3)nc2)C(C)(C)[C@H]1Oc1ccc(C#N)c(Cl)c1 (some centres unmarked) [PROTAC-46, N-((1r,3r)-3-(3-chloro-4-cyanophenoxy)-2,2,4,4-tetramethylcyclobutyl)-6-(4-(2-(2-((2-(2,6-dioxopiperidin-3-yl)-1-oxo-1,2-dihydroisoquinolin-3-yl)methoxy)ethoxy)ethyl)piperazin-1-yl)nicotinamide] | C (C <= 50) | ≥ 100 nM
CC1(C)[C@H](NC(=O)c2ccc(N3CCN(CCCOc4ccc(C(=O)NC5CCC(=O)NC5=O)nc4)CC3)nc2)C(C)(C)[C@H]1Oc1ccc(C#N)c(Cl)c1 (some centres unmarked) [PROTAC-50, 5-(3-(4-(5-(((1r,3r)-3-(3-chloro-4-cyanophenoxy)-2,2,4,4-tetramethylcyclobutyl)carbamoyl)pyridin-2-yl)piperazin-1-yl)propoxy)-N-(2,6-dioxopiperidin-3-yl)picolinamide] | B (50 < B <= 75) | < 1 nM
Cc1nc2c(OCCCCCN3CCN(c4ccc(C(=O)N[C@H]5C(C)(C)[C@H](Oc6ccc(C#N)c(Cl)c6)C5(C)C)cn4)CC3)cccc2c(=O)n1C1CCC(=O)NC1=O (some centres unmarked) [PROTAC-30, N-((1r,3r)-3-(3-chloro-4-cyanophenoxy)-2,2,4,4-tetramethylcyclobutyl)-6-(4-(5-((3-(2,6-dioxopiperidin-3-yl)-2-methyl-4-oxo-3,4-dihydroquinazolin-8-yl)oxy)pentyl)piperazin-1-yl)nicotinamide] | C (C <= 50) | ≥ 100 nM
CC1(C)[C@H](NC(=O)c2ccc(N3CCN(CCCCCCOc4cnn(C5CCC(=O)NC5=O)c(=O)c4)CC3)nc2)C(C)(C)[C@H]1Oc1ccc(C#N)c(Cl)c1 (some centres unmarked) [PROTAC-29, N-((1r,3r)-3-(3-chloro-4-cyanophenoxy)-2,2,4,4-tetramethylcyclobutyl)-6-(4-(6-((1-(2,6-dioxopiperidin-3-yl)-6-oxo-1,6-dihydropyridazin-4-yl)oxy)hexyl)piperazin-1-yl)nicotinamide] | B (50 < B <= 75) | < 1 nM
